Measurements from ChEMBL document CHEMBL6096738, “Optimization of Single Relaxin B-Chain Peptide Leads to the Identification of R2R01, a Potent, Long-Acting RXFP1 Agonist for Cardiovascular and Renal Diseases” (J Med Chem, 2025).
pEC50: −log10 of the molar value. Starred links: 1 amine or outer side, 2 acyl side, 3 side chain; linkers in the order of their positions; H or OH if unused. Non-standard residues stand in square brackets, D forms with d. Residues, ends and D or L forms follow the SMILES beside them. Groups on a side chain read outwards from the residue. *: point of attachment. γGlu = O=C(O)[C@H](CCC(=O)[*:2])N[*:1]; Stearoyl = CCCCCCCCCCCCCCCCCC(=O)*; Palmitoyl = CCCCCCCCCCCCCCCC(=O)*; Nle = CCCC[C@H](N)C(=O)O; AEEA = NCCOCCOCC(=O)O; Aib = CC(C)(N)C(=O)O

Columns and labels:
[1] = molecular target: T1, Relaxin receptor 1 (Homo sapiens) (UniProt Q9HBX9); assay: Agonist activity at human RXFP1 expressed in 2%HSA treated human OVCAR-5 cells assessed as intracellular cAMP accumulation by measuring maximal efficacy incubated for 30 mins with 2% HSA pretreated compound by HTRF assay relative to control; assay type: functional, cell-based; details: filed as agonist
T1 sequence (whole entry): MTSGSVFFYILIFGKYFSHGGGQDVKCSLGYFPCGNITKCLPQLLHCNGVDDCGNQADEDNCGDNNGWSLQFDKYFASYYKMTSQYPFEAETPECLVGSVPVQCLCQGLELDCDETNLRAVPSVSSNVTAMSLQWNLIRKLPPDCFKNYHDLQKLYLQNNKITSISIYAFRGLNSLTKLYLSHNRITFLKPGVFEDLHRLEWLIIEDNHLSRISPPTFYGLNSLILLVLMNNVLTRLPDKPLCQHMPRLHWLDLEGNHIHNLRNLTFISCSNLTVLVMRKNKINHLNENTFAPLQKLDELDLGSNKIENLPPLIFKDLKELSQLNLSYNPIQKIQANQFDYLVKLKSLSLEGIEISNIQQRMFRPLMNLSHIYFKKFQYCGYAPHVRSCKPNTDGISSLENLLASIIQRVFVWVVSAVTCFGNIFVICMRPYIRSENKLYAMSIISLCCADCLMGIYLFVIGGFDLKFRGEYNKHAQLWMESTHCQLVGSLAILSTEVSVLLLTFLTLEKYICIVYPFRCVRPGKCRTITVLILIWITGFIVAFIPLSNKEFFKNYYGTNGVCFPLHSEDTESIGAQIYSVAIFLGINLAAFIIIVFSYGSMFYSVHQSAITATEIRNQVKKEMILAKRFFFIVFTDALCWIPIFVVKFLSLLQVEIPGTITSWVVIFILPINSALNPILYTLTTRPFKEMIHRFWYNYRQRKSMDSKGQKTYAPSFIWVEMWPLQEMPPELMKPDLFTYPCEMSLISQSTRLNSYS

[2] = Half-life in female Gottingen pig at 1 mg/kg, iv measured after 198 hrs by LC-HRMS analysis; assay type: ADME, organism-based, Sus scrofa; details: in vivo
[3] = Induction of mast cell degranulation in human LAD2 cells assessed as beta-hexosaminidase release by measuring 4-methylumbelliferyl N-acetyl-beta-D-glucosaminide hydrolysis incubated for 30 mins by plate reader analysis; assay type: toxicity, cell-based; details: probe 4-methylumbelliferyl N-acetyl-beta-D-glucosaminide
[4] = Half-life in male Sprague-Dawley rat at 1 mg/kg, iv measured after 198 hrs by LC-HRMS analysis; assay type: ADME, organism-based; details: in vivo
[5] = Drug metabolism in female Gottingen pig assessed as fatty acid chain oxidation mediated M+16 metabolite formation by measuring metabolite to parent compound AUC ratio at 1 mg/kg, iv measured after 198 hrs by LC-HRMS analysis; assay type: ADME, organism-based, Sus scrofa; details: in vivo
[6] = molecular target: T1, Relaxin receptor 1 (Homo sapiens); assay: Agonist activity at human RXFP1 expressed in human OVCAR-5 cells assessed as intracellular cAMP accumulation by measuring maximal efficacy incubated for 30 mins by HTRF assay relative to control; assay type: functional, cell-based; details: filed as agonist
[7] = Drug metabolism in male Beagle dog assessed as fatty acid chain oxidation mediated M+16 metabolite formation by measuring metabolite to parent compound AUC ratio at 1 mg/kg, iv measured after 198 hrs by LC-HRMS analysis; assay type: ADME, organism-based, Canis lupus familiaris; details: in vivo
[8] = molecular target: T2, Relaxin receptor 1 (Homo sapiens, UniProt Q9HBX9); assay: Agonist activity at human RXFP1 expressed in human OVCAR-5 cells assessed as intracellular cAMP accumulation incubated for 30 mins by HTRF assay; assay type: functional, cell-based
T2 sequence (Q9HBX9 whole entry): T1 sequence (whole entry)

[9] = Induction of mast cell degranulation in human LAD2 cells assessed as beta-hexosaminidase release by measuring maximal efficacy of 4-methylumbelliferyl N-acetyl-beta-D-glucosaminide hydrolysis at 33 uM incubated for 30 mins by plate reader analysis relative to control; assay type: toxicity, cell-based; details: probe 4-methylumbelliferyl N-acetyl-beta-D-glucosaminide
[10] = molecular target: T2, Relaxin receptor 1; assay: Agonist activity at human RXFP1 expressed in 2%HSA treated human OVCAR-5 cells assessed as intracellular cAMP accumulation incubated for 30 mins with 2% HSA pretreated compound by HTRF assay; assay type: functional, cell-based
[11] = Drug metabolism in male Sprague-Dawley rat assessed as fatty acid chain oxidation mediated M+16 metabolite formation by measuring metabolite to parent compound AUC ratio at 3 mg/kg, sc measured after 198 hrs by LC-HRMS analysis; assay type: ADME, organism-based; details: in vivo
[12] = Half-life in male Beagle dog at 1 mg/kg, iv measured after 198 hrs by LC-HRMS analysis; assay type: ADME, organism-based, Canis lupus familiaris; details: in vivo
[13] = Drug metabolism in female Gottingen pig assessed as fatty acid chain oxidation mediated M+16 metabolite formation by measuring metabolite to parent compound AUC ratio at 1 mg/kg, sc measured after 198 hrs by LC-HRMS analysis; assay type: ADME, organism-based, Sus scrofa; details: in vivo
[14] = Induction of immune response in human CD4+ T cells assessed as increase in auto reactive T cells at 3 uM preincubated with monocyte-derived immature dendritic cells followed by T cell addition and further stimulated on day 7 and 14 with autologous dendritic cells and measured after 5 days post last stimulation by IFNgamma-Elispot analysis; assay type: toxicity, cell-based; details: 120 h
[15] = test system: Rattus norvegicus; assay: Chronotropic effect in pithed male Sprague-Dawley rat assessed as increase in heart rate at 1 mg/kg, iv measured after 60 mins relative to control; assay type: functional
[16] = AUC (0 to 24 hrs) in male Sprague-Dawley rat at 1 mg/kg, iv measured after 198 hrs by LC-HRMS analysis; assay type: ADME, organism-based; details: in vivo
[17] = Bioavailability in male Sprague-Dawley rat at 3 mg/kg, sc measured after 198 hrs by LC-HRMS analysis; assay type: ADME, organism-based; details: in vivo
[18] = Drug metabolism in male Sprague-Dawley rat assessed as fatty acid chain oxidation mediated M+16 metabolite formation by measuring metabolite to parent compound AUC ratio at 1 mg/kg, iv measured after 198 hrs by LC-HRMS analysis; assay type: ADME, organism-based; details: in vivo
[19] = Drug metabolism in male Beagle dog assessed as fatty acid chain oxidation mediated M+16 metabolite formation by measuring metabolite to parent compound AUC ratio at 3 mg/kg, sc measured after 198 hrs by LC-HRMS analysis; assay type: ADME, organism-based, Canis lupus familiaris; details: in vivo
[20] = Cmax in male Sprague-Dawley rat at 3 mg/kg, sc measured after 198 hrs by LC-HRMS analysis; assay type: ADME, organism-based; details: in vivo

| Compound | Emax [1] | half-life [2] | EC50 at 30 min [3] | half-life [4] | Ratio AUC [5] | Emax [6] | Ratio AUC [7] | pEC50 [8] | Emax at 0.5 h, 33 µM [9] | pEC50 [10] | Ratio AUC [11] | half-life [12] | Ratio AUC [13] | Activity [14] | Activity [15] | AUC(0-t) at 198 h [16] | bioavailability [17] | Ratio AUC [18] | Ratio AUC [19] | Cmax [20] |
| --- | --- | --- | --- | --- | --- | --- | --- | --- | --- | --- | --- | --- | --- | --- | --- | --- | --- | --- | --- | --- |
| CCCCCCCCCCCCCCCC(=O)N[C@@H](CCC(=O)N[C@@H](CCC(=O)N[C@@H](CCC(=O)NCCOCCOCC(=O)NCCOCCOCC(=O)NCCOCCOCC(=O)NCCCC[C@H](NC(=O)[C@H](CCCCNC(C)=O)NC(=O)[C@H](CCCCN)NC(=O)[C@H](CCCNC(=N)N)NC(=O)C(C)(C)NC(=O)[C@H](CO)NC(=O)[C@H](Cc1c[nH]c2ccccc12)NC(=O)[C@@H](NC(=O)[C@H](CO)NC(=O)[C@H](CCCC)NC(=O)CNC(=O)[C@H](CCC(=O)O)NC(=O)C(C)(C)NC(=O)C(C)(C)NC(=O)[C@@H](NC(=O)[C@H](CCCCNC(C)=O)NC(=O)[C@H](C)NC(=O)[C@H](CCCNC(=N)N)NC(=O)[C@@H](NC(=O)[C@H](CCCCN)NC(=O)[C@H](CCC(=O)O)NC(=O)[C@H](CCCNC(=N)N)NC(=O)CNC(=O)[C@H](CCC(=O)O)NC(=O)[C@H](CC(C)C)NC(C)=O)C(C)C)[C@@H](C)CC)[C@@H](C)O)C(N)=O)C(=O)O)C(=O)O)C(=O)O (Ac-LEGREKVRAK(Ac)I[Aib][Aib]EG[Nle]STWS[Aib]RKK(Ac)K([AEEA-AEEA-AEEA-γGlu-γGlu-γGlu-Palmitoyl])-NH2) | 96% | 12.9 h | 3900 nM | 5.7 h | 0.7 | 80% | 0.99 | 9.00 | 67.2% | 7.06 | 0.025 | 4.4 h |  |  |  |  |  |  |  |  |
| CCCCCCCCCCCCCCCCCC(=O)N[C@@H](CCC(=O)N[C@@H](CCC(=O)N[C@@H](CCC(=O)NCCOCCOCC(=O)NCCOCCOCC(=O)NCCOCCOCC(=O)NCCCC[C@H](NC(=O)[C@H](CCCCNC(C)=O)NC(=O)[C@H](CCCCN)NC(=O)[C@H](CCCNC(=N)N)NC(=O)C(C)(C)NC(=O)[C@H](CO)NC(=O)[C@H](Cc1c[nH]c2ccccc12)NC(=O)[C@@H](NC(=O)[C@H](CO)NC(=O)[C@H](CCCC)NC(=O)CNC(=O)[C@H](CCC(=O)O)NC(=O)C(C)(C)NC(=O)C(C)(C)NC(=O)[C@@H](NC(=O)[C@H](CCCCNC(C)=O)NC(=O)[C@H](C)NC(=O)[C@H](CCCNC(=N)N)NC(=O)[C@@H](NC(=O)[C@H](CCCCN)NC(=O)[C@H](CCC(=O)O)NC(=O)[C@H](CCCNC(=N)N)NC(=O)CNC(=O)[C@H](CCC(=O)O)NC(=O)[C@H](CC(C)C)NC(C)=O)C(C)C)[C@@H](C)CC)[C@@H](C)O)C(N)=O)C(=O)O)C(=O)O)C(=O)O (Ac-LEGREKVRAK(Ac)I[Aib][Aib]EG[Nle]STWS[Aib]RKK(Ac)K([AEEA-AEEA-AEEA-γGlu-γGlu-γGlu-Stearoyl])-NH2) | 89% | 7 h | 1260 nM | 3.9 h | 4 | 84% | 19.4 | 9.70 | 59.6% | 7.74 | 0.104 | 3.4 h | 4 | Non-toxic | 29% | 9.4 µM·h | 74% | < 0.1 | 6.6 | 1500 nM |
